The text below walks through data of paper PMC11009625, “Antibiotic class with potent in vivo activity targeting lipopolysaccharide synthesis in Gram-negative bacteria” (Proceedings of the National Academy of Sciences of the …, 2024).

The subject of experiment [1] is lpxH mutants of EN243 (Eco MG1655 ∆tolC). The experiment is described as follows: MIC, lpxH mutants with reduced susceptibility in efflux-defective E. coli background. The class given is cell-based. The following applies: Escherichia coli. Here is the method:
(§1) Minimum inhibitory concentration (MIC) values were determined according to the Clinical Laboratory Standards Institute guidelines. Frequency of resistance was determined by plating ~5 × 10^8 bacterial cells on agar-solidified media plates containing test compound at concentrations corresponding to four times the measured solid-media MIC of the strains. Colonies were counted after 24 h, restreaked onto media containing the same concentration of compound, and the MIC remeasured against the assayed compound. Genomic DNA from isolated clones was sequenced by paired-end sequencing on an Illumina MiSeq device. Complete experimental details available in SI Appendix. […]
Minimum inhibitory concentration (MIC) determination. Broth microdilution and agar dilution MIC assays were conducted according to CLSI guidelines (M07-2012). Appropriate inoculation suspension density was assessed using a Sensititre Nephelometer with a Sensititre 0.5 […]
McFarland Standard. […]
Frequency of Resistance. Frequency of resistance was assessed by spread plating between […] cfu of a freshly-grown culture of the strain of interest on plates containing a concentration of compound corresponding to 4 times the MIC of the strain (as determined by agar-dilution MIC). Serial dilutions of the same cultures were plated on non-selective media to determine the number of cells plated. The frequency of resistance was determined by dividing the number of colonies obtained on the selective plates after 24 hours of growth by the calculated total population plated. Typically 4 independently grown cultures were used to initiate 4 separate experiments, and the total combined number of obtained colonies and plated populations were used for calculations. Isolated colonies from selection plates were re-streaked on an additional plate containing the same concentration of compound used in the original selection. Clones were saved at -80 °C for subsequent analysis.
Whole-genome sequencing and data analysis. Genomic DNA of selected clones was prepared using an Epicentre MasterPure Complete DNA Purification Kit. Whole-genome sequencing libraries were prepared using an Illumina Nextera XT Library Preparation Kit. The libraries were sequenced using an Illumina MiSeq device with a V3 600-cycle reagent kit. Whole-genome sequencing data was analyzed using CLC Genomics Workbench Version 11. […]

Experiment [2] has as its system K. pneumoniae ATCC 13883. The experiment in a line: Frequency of resistance and agar MIC, K. pneumoniae. The following applies: Klebsiella pneumoniae, ATCC13883, read-out: Agar MIC K. pneumoniae ATCC 13883. The class given is cell-based. Here is the method:
as §1
Minimum inhibitory concentration (MIC) determination. […] Appropriate inoculation suspension density was assessed using a Sensititre Nephelometer with a Sensititre 0.5 […]
Frequency of Resistance. Frequency of resistance was assessed by spread plating between […] cfu of a freshly-grown culture of the strain of interest on plates containing a concentration of compound corresponding to 4 times the MIC of the strain (as determined by agar-dilution MIC). […] The frequency of resistance was determined by dividing the number of colonies obtained on the selective plates after 24 hours of growth by the calculated total population plated. […]

Converted amounts (≈) assume the structure as drawn. Like-named read-outs stand apart in the source and are kept apart here.

The MIC is the lowest concentration that inhibits growth of the organism. Consider `CC(=O)N1CCc2cc(S(=O)(=O)N3CCN(c4cccc(C(F)(F)F)c4)CC3)ccc21` [AZ1, reference compound], for which the MIC in experiment [1] (MG1655, read-out: MIC CH6045) was 2 µg/mL (≈ 4.41 µM); in experiment [1] (MG1655, read-out: MIC CH6047), over 64 µg/mL; in experiment [1] (MG1655, read-out: MIC CH6048), 0.5 µg/mL (≈ 1.1 µM); in experiment [1] (MG1655, read-out: MIC CH6051), over 64 µg/mL; in experiment [1] (MG1655, read-out: MIC CH7010) it was 2 µg/mL (≈ 4.41 µM); in experiment [1] (MG1655, read-out: MIC CH7011) it was 2 µg/mL (≈ 4.41 µM). In addition, the MIC in experiment [1] (MG1655, read-out: MIC CH7012) was 4 µg/mL (≈ 8.82 µM); in experiment [1] (MG1655, read-out: MIC CH7013), 64 µg/mL (≈ 141 µM); in experiment [1] (MG1655, read-out: MIC CH7015), over 64 µg/mL; in experiment [1] (MG1655, read-out: MIC CH7016) it was 2 µg/mL (≈ 4.41 µM); in experiment [1] (MG1655, read-out: MIC CH8845), 2 µg/mL (≈ 4.41 µM); in experiment [1] (MG1655, read-out: MIC CH8846), 2 µg/mL (≈ 4.41 µM). For the same molecule, the MIC is over 64 µg/mL in experiment [1] (MG1655, read-out: MIC CH8847); 4 µg/mL (≈ 8.82 µM) in experiment [1] (MG1655, read-out: MIC CH8848); 2 µg/mL (≈ 4.41 µM) in experiment [1] (MG1655, read-out: MIC CH8850); 1 µg/mL (≈ 2.21 µM) in experiment [1] (MG1655, read-out: MIC CH8851); 2 µg/mL (≈ 4.41 µM) in experiment [1] (MG1655, read-out: MIC CH8853); 2 µg/mL (≈ 4.41 µM) in experiment [1] (MG1655, read-out: MIC CH8854). Moreover, the MIC was over 64 µg/mL in experiment [1] (MG1655, read-out: MIC CH8855); over 64 µg/mL in experiment [1] (MG1655, read-out: MIC CH8856); over 64 µg/mL in experiment [1] (MG1655, read-out: MIC CH8868); 0.125 µg/mL (≈ 0.276 µM) in experiment [1] (MG1655, read-out: MIC CH8869); over 64 µg/mL in experiment [1] (MG1655, read-out: MIC CH8870); over 64 µg/mL in experiment [1] (MG1655, read-out: MIC CH8871).
Turning to `Cc1cc(C#N)nc(N2CCN(S(=O)(=O)c3ccc(NC(=O)c4cc(CNCCCN)ccc4N(C)S(C)(=O)=O)cc3)CC2)n1.Cl.Cl` [EBL-3599], in experiment [2], the minimal inhibitory concentration (MIC) came out at 0.5 µg/mL.
Turning to `Cc1cc(C#N)nc(N2CCN(S(=O)(=O)c3ccc(NC(=O)c4cc(CN5CC(CN)C5)ccc4N(C)S(C)(=O)=O)cc3)CC2)n1` [EBL-3647], the MIC in experiment [2] is 0.5 µg/mL (≈ 0.749 µM).
`CN(c1ccccc1C(=O)Nc1ccc(S(=O)(=O)N2CCCCC2)cc1)S(C)(=O)=O` [JEDI-852]: the minimum inhibitory concentration (MIC) in experiment [1] (MG1655, read-out: MIC CH6045) is 64 µg/mL (≈ 142 µM); in experiment [1] (MG1655, read-out: MIC CH6047) it was over 64 µg/mL; in experiment [1] (MG1655, read-out: MIC CH6048), 32 µg/mL (≈ 70.9 µM); in experiment [1] (MG1655, read-out: MIC CH6051) it was over 64 µg/mL; in experiment [1] (MG1655, read-out: MIC CH7010) it was 2 µg/mL (≈ 4.43 µM); in experiment [1] (MG1655, read-out: MIC CH7011), 16 µg/mL (≈ 35.4 µM). Also, the MIC in experiment [1] (MG1655, read-out: MIC CH7012) was 16 µg/mL (≈ 35.4 µM); in experiment [1] (MG1655, read-out: MIC CH7013), over 64 µg/mL; in experiment [1] (MG1655, read-out: MIC CH7015), 32 µg/mL (≈ 70.9 µM); in experiment [1] (MG1655, read-out: MIC CH7016), 16 µg/mL (≈ 35.4 µM); in experiment [1] (MG1655, read-out: MIC CH8845), 32 µg/mL (≈ 70.9 µM); in experiment [1] (MG1655, read-out: MIC CH8846), 32 µg/mL (≈ 70.9 µM). The MIC in experiment [1] (MG1655, read-out: MIC CH8847) was over 64 µg/mL; in experiment [1] (MG1655, read-out: MIC CH8848), over 64 µg/mL; in experiment [1] (MG1655, read-out: MIC CH8850), over 64 µg/mL; in experiment [1] (MG1655, read-out: MIC CH8851), 8 µg/mL (≈ 17.7 µM); in experiment [1] (MG1655, read-out: MIC CH8853), over 64 µg/mL; in experiment [1] (MG1655, read-out: MIC CH8854) it was over 64 µg/mL. The minimal inhibitory concentration (MIC) in experiment [1] (MG1655, read-out: MIC CH8855) was over 64 µg/mL; in experiment [1] (MG1655, read-out: MIC CH8856), over 64 µg/mL; in experiment [1] (MG1655, read-out: MIC CH8868), over 64 µg/mL; in experiment [1] (MG1655, read-out: MIC CH8869), 4 µg/mL (≈ 8.86 µM); in experiment [1] (MG1655, read-out: MIC CH8870), 32 µg/mL (≈ 70.9 µM); in experiment [1] (MG1655, read-out: MIC CH8871) it was over 64 µg/mL.
With `CN(c1ccccc1C(=O)Nc1ccc(S(=O)(=O)N2CCN(c3cccc(C(F)(F)F)c3)CC2)cc1)S(C)(=O)=O` [JEDI-1444], the minimum inhibitory concentration (MIC) was 0.25 µg/mL (≈ 0.419 µM) in experiment [1] (MG1655, read-out: MIC CH6045); 1 µg/mL (≈ 1.68 µM) in experiment [1] (MG1655, read-out: MIC CH6047); 0.064 µg/mL (≈ 0.107 µM) in experiment [1] (MG1655, read-out: MIC CH6048); over 2 µg/mL in experiment [1] (MG1655, read-out: MIC CH6051); 0.064 µg/mL (≈ 0.107 µM) in experiment [1] (MG1655, read-out: MIC CH7010); 0.25 µg/mL (≈ 0.419 µM) in experiment [1] (MG1655, read-out: MIC CH7011). Besides, the MIC in experiment [1] (MG1655, read-out: MIC CH7012) stood at 0.064 µg/mL (≈ 0.107 µM); in experiment [1] (MG1655, read-out: MIC CH7013) it was 0.125 µg/mL (≈ 0.21 µM); in experiment [1] (MG1655, read-out: MIC CH7015) it was 0.064 µg/mL (≈ 0.107 µM); in experiment [1] (MG1655, read-out: MIC CH7016), 0.125 µg/mL (≈ 0.21 µM); in experiment [1] (MG1655, read-out: MIC CH8845) it was 1 µg/mL (≈ 1.68 µM); in experiment [1] (MG1655, read-out: MIC CH8846), 0.25 µg/mL (≈ 0.419 µM). For the same molecule, the MIC was over 2 µg/mL in experiment [1] (MG1655, read-out: MIC CH8847); 0.5 µg/mL (≈ 0.838 µM) in experiment [1] (MG1655, read-out: MIC CH8848); 0.5 µg/mL (≈ 0.838 µM) in experiment [1] (MG1655, read-out: MIC CH8850); 0.25 µg/mL (≈ 0.419 µM) in experiment [1] (MG1655, read-out: MIC CH8851); 0.25 µg/mL (≈ 0.419 µM) in experiment [1] (MG1655, read-out: MIC CH8853); 0.25 µg/mL (≈ 0.419 µM) in experiment [1] (MG1655, read-out: MIC CH8854). Also, the MIC in experiment [1] (MG1655, read-out: MIC CH8855) was over 2 µg/mL; in experiment [1] (MG1655, read-out: MIC CH8856), over 2 µg/mL; in experiment [1] (MG1655, read-out: MIC CH8868), 2 µg/mL (≈ 3.35 µM); in experiment [1] (MG1655, read-out: MIC CH8869), 0.064 µg/mL (≈ 0.107 µM); in experiment [1] (MG1655, read-out: MIC CH8870), 0.25 µg/mL (≈ 0.419 µM); in experiment [1] (MG1655, read-out: MIC CH8871) it was 2 µg/mL (≈ 3.35 µM).
